Source: patent US8017612B2, “Piperazine compound and use thereof as a HCV polymerase inhibitor” (priority 2006, dated 2011)

Columns and labels:
[1] = target: T1, HCV polymerase (NS5B) type 1a (Hepatitis C virus genotype 1a, UniProt P26664); assay: Assay of enzyme (HCV polymerase) inhibitory activity, type 1a enzyme; assay type: biochemical, HCV type 1a (cloned from the blood of patients); conditions: HCV polymerase inhibitory activity (IC50), 1a, type 1a enzyme 1.5 μg/ml, 25° C., 60 min
T1 construct: made in house; host or cells: Escherichia coli (by the 'similar method' of the 1b enzyme)
Summary of the method: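 Reactions ran 60 min at 25° C in 20 mM Tris-HCl pH 7.5, 5 mM MgCl2, 50 mM NaCl, holding genotype 1a NS5B (1.5 μg/ml, Δ47 C-terminus, 6His), substrate RNA 5 μg/ml, UTP 2 μM with tritiated UTP and other NTPs 50 μM. IC50 derived from incorporated radiolabel in filter-trapped RNA relative to uninhibited reaction.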

[2] = target: T2, HCV polymerase (NS5B) type 1b (Hepatitis C virus genotype 1b, UniProt P26663); assay: Assay of enzyme (HCV polymerase) inhibitory activity, type 1b enzyme; assay type: biochemical, HCV BK strain (type 1b); conditions: HCV polymerase inhibitory activity (IC50), 1b, type 1b enzyme 0.5 μg/ml, 25° C., 60 min
T2 construct: a region encoding NS5B (J Virol 1991 March, 65(3), 1105-13, 544 amino acids after deletion of 47 amino acids on the C-terminal); 6xHis (C); made in house; host or cells: Escherichia coli
Summary of the method: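 IC50 derived from [3H]UTP incorporation into TCA-insoluble RNA, compared with and without test compound. Reaction (25 °C, 60 min, Tris pH 7.5, 5 mM MgCl2): E. coli-expressed 1b NS5B Δ47 with His tag at 0.5 μg/ml, 5 μg/ml run-off substrate RNA, ATP/GTP/CTP 50 μM, UTP 2 μM.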

`CC(=O)N1CCN(S(=O)(=O)c2ccc(C(C)C)cc2)[C@@H](C(=O)NCc2ccc(C3CC3)cc2)C1` [Example 280, 4-acetyl-1-(4-isopropyl-benzenesulfonyl)-piperazine-2-carboxylic acid 4-cyclopropyl-benzylamide] gave an IC50 [1] of 100 to 1000 nM and an IC50 [2] of 100 to 1000 nM.

For `CCCc1ccc(S(=O)(=O)N2CCN(C(=O)Nc3cccc(OCC(=O)OCC)c3)C[C@@H]2C(=O)NCc2ccc(C(C)C)cc2)cc1` [Example 281, (3-{[(R)-3-(4-isopropyl-benzylcarbamoyl)-4-(4-propyl-benzenesulfonyl)-piperazine-1-carbonyl]-amino}-phenoxy)-acetic acid ethyl ester], the IC50 [1] was 100 to 1000 nM and the IC50 [2] was < 100 nM.

For `CCCc1ccc(S(=O)(=O)N2CCN(C(=O)Nc3cccc(OCC(=O)O)c3)C[C@@H]2C(=O)NCc2ccc(C(C)C)cc2)cc1` [Example 282, (3-{[(R)-3-(4-isopropyl-benzylcarbamoyl)-4-(4-propyl-benzenesulfonyl)-piperazine-1-carbonyl]-amino}-phenoxy)-acetic acid], the IC50 [1] was 100 to 1000 nM and the IC50 [2] was < 100 nM.

With `CC(=O)N1CCN(S(=O)(=O)c2ccc(CCC(=O)O)s2)[C@@H](C(=O)NCc2ccc(C(C)C)cc2)C1` [Example 283, 3-{5-[(R)-4-acetyl-2-(4-isopropyl-benzylcarbamoyl)-piperazine-1-sulfonyl]-thiophen-2-yl}-propionic acid] the IC50 [1] was > 1000 nM and the IC50 [2] was > 1000 nM.

`CC(=O)N1CCN(S(=O)(=O)c2ccc(OCC(F)(F)F)cc2)[C@@H](C(=O)NCc2ccc(C(C)C)cc2)C1` [Example 284, (R)-4-acetyl-1-[4-(2,2,2-trifluoro-ethoxy)-benzenesulfonyl]-piperazine-2-carboxylic acid 4-isopropyl-benzylamide] was tested, and the IC50 [1] was 100 to 1000 nM and the IC50 [2] was < 100 nM.

For `CC(C)c1ccc(CNC(=O)[C@H]2CN(C(=O)Nc3ccc(C(=O)O)cc3)CCN2S(=O)(=O)c2ccc(C(F)(F)F)cc2)cc1` [Example 285, 4-{[(R)-3-(4-isopropyl-benzylcarbamoyl)-4-(4-trifluoromethyl-benzenesulfonyl)-piperazine-1-carbonyl]-amino}-benzoic acid], the IC50 [1] was 100 to 1000 nM and the IC50 [2] was < 100 nM.

For `CC(C)c1ccc(CNC(=O)[C@H]2CN(C(=O)Nc3cccc(C(=O)O)c3)CCN2S(=O)(=O)c2ccc(C(F)(F)F)cc2)cc1` [Example 286, 3-{[(R)-3-(4-isopropyl-benzylcarbamoyl)-4-(4-trifluoromethyl-benzenesulfonyl)-piperazine-1-carbonyl]-amino}-benzoic acid], the IC50 [1] was 100 to 1000 nM and the IC50 [2] was 100 to 1000 nM.

`CCCc1ccc(S(=O)(=O)N2CCN(C(C)=O)C[C@@H]2C(=O)NCc2ccc(C(C)C)cc2)s1` [Example 287, (R)-4-acetyl-1-(5-propyl-thiophene-2-sulfonyl)-piperazine-2-carboxylic acid 4-isopropyl-benzylamide] was tested, and the IC50 [1] was < 100 nM and the IC50 [2] was < 100 nM.

`COc1ccc(S(=O)(=O)N2CCN(C(C)=O)C[C@@H]2C(=O)NCc2ccc(C(C)C)cc2)cc1-c1nn[nH]n1` [Example 288, (R)-4-acetyl-1-[4-methoxy-3-(2H-tetrazol-5-yl)-benzenesulfonyl]-piperazine-2-carboxylic acid 4-isopropyl-benzylamide] gave an IC50 [1] of 100 to 1000 nM and an IC50 [2] of 100 to 1000 nM.

With `CC(=O)N1CCN(S(=O)(=O)c2ccc(CC(=O)O)s2)[C@@H](C(=O)NCc2ccc(C(C)C)cc2)C1` [Example 289, {5-[(R)-4-acetyl-2-(4-isopropyl-benzylcarbamoyl)-piperazine-1-sulfonyl]-thiophen-2-yl}-acetic acid] the IC50 [1] was > 1000 nM and the IC50 [2] was > 1000 nM.

`CCOC(=O)C(=O)N1CCN(S(=O)(=O)c2ccc(C(F)(F)F)cc2)[C@@H](C(=O)NCc2ccc(C(C)C)cc2)C1` [Example 290, [(R)-3-(4-isopropyl-benzylcarbamoyl)-4-(4-trifluoromethyl-benzenesulfonyl)-piperazin-1-yl]-oxo-acetic acid ethyl ester] was tested, and the IC50 [1] was > 1000 nM and the IC50 [2] was 100 to 1000 nM.

`CC(=O)N1CCN(S(=O)(=O)c2ccc(C(C)C)cc2)[C@@H](C(=O)NCc2ccc(C(C)C)cc2C)C1` [Example 291, (R)-4-acetyl-1-(4-isopropyl-benzenesulfonyl)-piperazine-2-carboxylic acid 4-isopropyl-2-methyl-benzylamide] was tested, and the IC50 [1] was < 100 nM and the IC50 [2] was < 100 nM.

In the case of `CC(=O)N1CCN(S(=O)(=O)c2ccc(C(C)C)cc2)[C@@H](C(=O)NCc2ccc(C(C)C)cc2F)C1` [Example 292, (R)-4-acetyl-1-(4-isopropyl-benzenesulfonyl)-piperazine-2-carboxylic acid 2-fluoro-4-isopropyl-benzylamide], the IC50 [1] is reported as 100 to 1000 nM and the IC50 [2] is reported as < 100 nM.

Compound `CC(=O)N1CCN(S(=O)(=O)c2ccc(C(C)C)cc2)[C@@H](C(=O)NCc2ccc(C(C)(F)F)cc2)C1` [Example 293, (R)-4-acetyl-1-(4-isopropyl-benzenesulfonyl)-piperazine-2-carboxylic acid 4-(1,1-difluoro-ethyl)-benzylamide] has an IC50 [1] of 100 to 1000 nM and an IC50 [2] of 100 to 1000 nM.

For `CCCc1ccc(CNC(=O)[C@H]2CN(C(C)=O)CCN2S(=O)(=O)c2ccc(C(C)C)cc2)cc1` [Example 294, (R)-4-acetyl-1-(4-isopropyl-benzenesulfonyl)-piperazine-2-carboxylic acid 4-propyl-benzylamide], the IC50 [1] was < 100 nM and the IC50 [2] was < 100 nM.

In the case of `CCCc1ccc(S(=O)(=O)N2CCN(C(=O)Nc3ccncc3)C[C@@H]2C(=O)NCc2ccc(C(C)C)cc2)cc1` [Example 295, (R)-4-(4-propyl-benzenesulfonyl)-piperazine-1,3-dicarboxylic acid 3-(4-isopropyl-benzylamide) 1-pyridin-4-ylamide], the IC50 [1] is reported as < 100 nM and the IC50 [2] is reported as < 100 nM.

`CCCc1ccc(S(=O)(=O)N2CCN(c3nc(C(=O)OCC)cs3)C[C@@H]2C(=O)NCc2ccc(C(C)C)cc2)cc1` [Example 296, 2-[(R)-3-(4-isopropyl-benzylcarbamoyl)-4-(4-propyl-benzenesulfonyl)-piperazin-1-yl]-thiazole-4-carboxylic acid ethyl ester] was tested, and the IC50 [1] was < 100 nM and the IC50 [2] was < 100 nM.

`CCCc1ccc(S(=O)(=O)N2CCN(c3nc(C)c(C(=O)OC)s3)C[C@@H]2C(=O)NCc2ccc(C(C)C)cc2)cc1` [Example 297, 2-[(R)-3-(4-isopropyl-benzylcarbamoyl)-4-(4-propyl-benzenesulfonyl)-piperazin-1-yl]-4-methyl-thiazole-5-carboxylic acid methyl ester] was tested, and the IC50 [1] was < 100 nM and the IC50 [2] was < 100 nM.

In the case of `CCCc1ccc(S(=O)(=O)N2CCN(c3nc(C(=O)O)cs3)C[C@@H]2C(=O)NCc2ccc(C(C)C)cc2)cc1` [Example 298, 2-[(R)-3-(4-isopropyl-benzylcarbamoyl)-4-(4-propyl-benzenesulfonyl)-piperazin-1-yl]-thiazole-4-carboxylic acid], the IC50 [1] is reported as 100 to 1000 nM and the IC50 [2] is reported as 100 to 1000 nM.

For `CCCc1ccc(S(=O)(=O)N2CCN(c3nc(C)c(C(=O)O)s3)C[C@@H]2C(=O)NCc2ccc(C(C)C)cc2)cc1` [Example 299, 2-[(R)-3-(4-isopropyl-benzylcarbamoyl)-4-(4-propyl-benzenesulfonyl)-piperazin-1-yl]-4-methyl-thiazole-5-carboxylic acid], the IC50 [1] was < 100 nM and the IC50 [2] was < 100 nM.

`CC(C)c1ccc(CNC(=O)[C@H]2CN(C(=O)Nc3ccncn3)CCN2S(=O)(=O)c2ccc(C(F)(F)F)cc2)cc1` [Example 300, (R)-4-(4-trifluoromethyl-benzenesulfonyl)-piperazine-1,3-dicarboxylic acid 3-(4-isopropyl-benzylamide) 1-pyrimidin-4-ylamide] was tested, and the IC50 [1] was < 100 nM and the IC50 [2] was < 100 nM.

With `CC(C)c1ccc(CNC(=O)[C@H]2CN(C(=O)Nc3ccnc(C(=O)OC(C)(C)C)c3)CCN2S(=O)(=O)c2ccc(C(F)(F)F)cc2)cc1` [Example 301, 4-{[(R)-3-(4-isopropyl-benzylcarbamoyl)-4-(4-trifluoromethyl-benzenesulfonyl)-piperazine-1-carbonyl]-amino}-pyridine-2-carboxylic acid tert-butyl ester] the IC50 [1] was < 100 nM and the IC50 [2] was < 100 nM.

With `COC(=O)c1cnc(N2CCN(S(=O)(=O)c3ccc(C(F)(F)F)cc3)[C@@H](C(=O)NCc3ccc(C(C)C)cc3)C2)s1` [Example 302, 2-[(R)-3-(4-isopropyl-benzylcarbamoyl)-4-(4-trifluoromethyl-benzenesulfonyl)-piperazin-1-yl]-thiazole-5-carboxylic acid methyl ester] the IC50 [1] was 100 to 1000 nM and the IC50 [2] was < 100 nM.

`COC(=O)c1ccc(N2CCN(S(=O)(=O)c3ccc(C(F)(F)F)cc3)[C@@H](C(=O)NCc3ccc(C(C)C)cc3)C2)nc1` [Example 303, 6-[(R)-3-(4-isopropyl-benzylcarbamoyl)-4-(4-trifluoromethyl-benzenesulfonyl)-piperazin-1-yl]-nicotinic acid methyl ester] was tested, and the IC50 [1] was < 100 nM and the IC50 [2] was < 100 nM.

`CC(C)c1ccc(CNC(=O)[C@H]2CN(CCc3ccncc3)CCN2S(=O)(=O)c2ccc(C(F)(F)F)cc2)cc1` [Example 304, (R)-4-(2-pyridin-4-yl-ethyl)-1-(4-trifluoromethyl-benzenesulfonyl)-piperazine-2-carboxylic acid 4-isopropyl-benzylamide] gave an IC50 [1] of 100 to 1000 nM and an IC50 [2] of 100 to 1000 nM.
